In US20260240869A1, “ANTIPSEUDOMONAL FUSIDIC ACID COMPOUNDS” (priority 2022, published 2026):

Columns and labels:
[1] = Hydrolysis of prodrug in CAMH; assay type: physicochemical; conditions: In CAMH at 37° C.
Excerpt: As a result, amidoxime prodrug versions containing variable amine linkers were designed (Table 8).

[2] = system: clinical isolates of P. aeruginosa; experiment: MIC against panel of clinical isolates of P. aeruginosa; assay type: cell-based, Pseudomonas aeruginosa; conditions: for MIC: Pseudomonas aeruginosa
Description: Antimicrobial Susceptibility Tests. Susceptibility testing was performed in biological triplicate, using the microdilution broth method as outlined by the Clinical and Laboratory Standards Institute. Bacteria were cultured with cation-adjusted Meuller-Hinton broth (Sigma-Aldrich; catalogue number: 90922) or Luria-Bertani (LB) broth (Lennox) in round-bottom 96-well plates (Corning; catalogue number: 3788).

Compound: CC(=O)O[C@H]1C[C@@]2(C)[C@@H](C[C@@H](O)[C@H]3[C@@]4(C)CC[C@@H](O)[C@@H](C)[C@@H]4CC[C@@]32C)/C1=C(\CCC=C(C)C)C(=O)O/N=C(\N)CNCCCNCCCNCCCN [FA prodrug, (3R, 4S,5S,8S,9S,10S,11R,13R,14S,16S,Z)-17-((Z)-1,14-diamino-22-methyl-17-oxo-16-oxa-4,8,12,15-tetraazatricosa-14,21-dien-18-ylidene)-3,11-dihydroxy-4,8,10,14-tetramethylhexadecahydro-1H-cyclopenta[a]phenanthren-16-yl acetate]
- period of hydrolysis to fusidic acid [1]: 48 h
- improved activity relative to FA against 75 clinical isolates ([2]; FIG. 5c): 64-256 ×
- MIC ([2]; AR Bank Isolate # 0054): 16 µg/mL
- MIC ([2]; AR Bank Isolate # 0064): 16 µg/mL
- MIC ([2]; AR Bank Isolate # 0090): 16 µg/mL
- MIC ([2]; AR Bank Isolate # 0092): 16 µg/mL
- MIC ([2]; AR Bank Isolate # 0095): 16 µg/mL
- MIC ([2]; AR Bank Isolate # 0100): 16 µg/mL
- MIC ([2]; AR Bank Isolate # 0103): 16 µg/mL
- MIC ([2]; AR Bank Isolate # 0110): 16 µg/mL
- MIC ([2]; AR Bank Isolate # 0229): 16 µg/mL
- MIC ([2]; AR Bank Isolate # 0230): 16 µg/mL
- MIC ([2]; AR Bank Isolate # 0231): 8 µg/mL
- MIC ([2]; AR Bank Isolate # 0232): 16 µg/mL
- MIC ([2]; AR Bank Isolate # 0233): 16 µg/mL
- MIC ([2]; AR Bank Isolate # 0234): 8 µg/mL
- MIC ([2]; AR Bank Isolate # 0235): 8 µg/mL
- MIC ([2]; AR Bank Isolate # 0236): 16 µg/mL
- MIC ([2]; AR Bank Isolate # 0237): 16 µg/mL
- MIC ([2]; AR Bank Isolate # 0239): 8 µg/mL
- MIC ([2]; AR Bank Isolate # 0240): 16 µg/mL
- MIC ([2]; AR Bank Isolate # 0241): 16 µg/mL
- MIC ([2]; AR Bank Isolate # 0242): 8 µg/mL
- MIC ([2]; AR Bank Isolate # 0243): 16 µg/mL
- MIC ([2]; AR Bank Isolate # 0244): 16 µg/mL
- MIC ([2]; AR Bank Isolate # 0245): 16 µg/mL
- MIC ([2]; AR Bank Isolate # 0246): 8 µg/mL
- MIC ([2]; AR Bank Isolate # 0248): 8 µg/mL
- MIC ([2]; AR Bank Isolate # 0250): 16 µg/mL
- MIC ([2]; AR Bank Isolate # 0252): 16 µg/mL
- MIC ([2]; AR Bank Isolate # 0254): 32 µg/mL
- MIC ([2]; AR Bank Isolate # 0265): 16 µg/mL
- MIC ([2]; AR Bank Isolate # 0763): 16 µg/mL
- MIC ([2]; AR Bank Isolate # 0767): 16 µg/mL
- MIC ([2]; AR Bank Isolate # 0769): 16 µg/mL
- MIC ([2]; AR Bank Isolate # 0772): 8 µg/mL
- MIC ([2]; Carle Isolate ID # Cl-02): 8 µg/mL
- MIC ([2]; Carle Isolate ID # Cl-03): 8 µg/mL
- MIC ([2]; Carle Isolate ID # Cl-04): 16 µg/mL
- MIC ([2]; Carle Isolate ID # Cl-05): 8 µg/mL
- MIC ([2]; Carle Isolate ID # Cl-06): 8 µg/mL
- MIC ([2]; Carle Isolate ID # Cl-07): 8 µg/mL
- MIC ([2]; Carle Isolate ID # Cl-08): 8 µg/mL
- MIC ([2]; Carle Isolate ID # Cl-09): 8 µg/mL
- MIC ([2]; Carle Isolate ID # Cl-10): 16 µg/mL
- MIC ([2]; Carle Isolate ID # Cl-11): 8 µg/mL
- MIC ([2]; Carle Isolate ID # Cl-12): 8 µg/mL
- MIC ([2]; Carle Isolate ID # Cl-13): 16 µg/mL
- MIC ([2]; Carle Isolate ID # Cl-14): 8 µg/mL
- MIC ([2]; Carle Isolate ID # Cl-15): 8 µg/mL
- MIC ([2]; Carle Isolate ID # Cl-19): 8 µg/mL
- MIC ([2]; Cubist Strain ID # 996): 8 µg/mL
- MIC ([2]; Cubist Strain ID # 997): 8 µg/mL
- MIC ([2]; Cubist Strain ID # 998): 8 µg/mL
- MIC ([2]; Cubist Strain ID # 999): 8 µg/mL
- MIC ([2]; Cubist Strain ID # 1000): 16 µg/mL
- MIC ([2]; Cubist Strain ID # 1001): 16 µg/mL
- MIC ([2]; Cubist Strain ID # 1174): 16 µg/mL
- MIC ([2]; Cubist Strain ID # 1175): 16 µg/mL
- MIC ([2]; Cubist Strain ID # 1176): 16 µg/mL
- MIC ([2]; Cubist Strain ID # 1280): 16 µg/mL
- MIC ([2]; Cubist Strain ID # 1282): 16 µg/mL
- MIC ([2]; Cubist Strain ID # 1283): 16 µg/mL
- MIC ([2]; Cubist Strain ID # 1284): 16 µg/mL
- MIC ([2]; Cubist Strain ID # 1586): 16 µg/mL
- MIC ([2]; Cubist Strain ID # 1590): 32 µg/mL
- MIC ([2]; Cubist Strain ID # 1591): 32 µg/mL
- MIC ([2]; Cubist Strain ID # 1592): 32 µg/mL
- MIC ([2]; Cubist Strain ID # 1905): 16 µg/mL
- MIC ([2]; Cubist Strain ID # 1906): 16 µg/mL
- MIC ([2]; Cubist Strain ID # 2242): 8 µg/mL
- MIC ([2]; Cubist Strain ID # 2243): 16 µg/mL
- MIC ([2]; Cubist Strain ID # 2244): 8 µg/mL
- MIC ([2]; Other strains (ref.) 1113): 16 µg/mL
- MIC ([2]; Other strains (ref.) 1727): 8 µg/mL
